Measured values from US10077463B2, “Optical selection of cells” (President and Fellows of Harvard College, priority 2015, dated 2018).

Columns and labels:
rat hippocampal neurons = experiment: Photostick of a single neuron chosen by Optopatch firing pattern; format: cell-based; conditions: 15 μM, 407 nm light 2200 J/cm^2, ACCUTASE 6 min 37° C.
MDCK cells [1] = experiment: Cell entry by high magnification fluorescence imaging; format: cell-based, Canine; conditions: 4 μM, fluorescence localized to the cell membrane
MDCK cells [2] = format: cell-based; conditions: 4 μM, 407 nm light 825 J/cm^2
MDCK cells [3] = experiment: Photostick of MDCK cells (violet light crosslinking, ACCUTASE development); format: cell-based, Canine

CC[N+]1=C(/C=C/C=C2/N(CCCCCC(=O)NCCNC(=O)CCSSCCNC(=O)C(CCCCNC(=O)CCCCC3SCC4NC(=O)NC43)NC(=O)c3ccc(N=[N+]=N)cc3)c3ccc(S(=O)(=O)O)cc3C2(C)C)C(C)(C)c2cc(S(=O)(=O)O)ccc21 (stereo not drawn) [Cy3-SBED]
Retention of selected neuron after ACCUTASE (in words) (rat hippocampal neurons): the selected neuron remained
Entry into cells (intracellular fluorescence) (MDCK cells [1]): did not enter the cells
Cell doubling time post-photostick (MDCK cells [2]): 34 h
Cells in the dark region removed (MDCK cells [3]): 99.96%
Cells within the illuminated region retained (photostuck cells remained) (MDCK cells [3]): 98.7%
Non-photostuck cells remained (MDCK cells [3]): 0.04%
